Tests used:
Assay type in all cases: in vivo
[1] = system: patients exhibiting bronchial asthma; test: Clinical trial A: bronchodilator efficacy compared with placebo and/or Theophylline and with Salbutamol
From the text: Criteria for inclusion are based on medical history and on initial examination. Subjects selected are of either sex, aged between 18 and 60 years, and identified as having a history of bronchial asthma and positive response to inhalation of β2-agonist therapy (e.g. Fenoterol or Salbutamol) or other bronchodilator therapy, e.g. with FEV-1 and/or PEFR increasing by 20% as documented 1 week before commencement of the trial. Baseline of FEV-1 and/or PEFR in each subject entered for the trial should be at least 20% below the predicted value, preferably also at the time of trial. The following exclusion criteria are applied: • - Severe chronic obstructive pulmonary disease, emphysema, active and progressive infection, status asthmaticus during the last 12 months. • - Any serious or chronic illness of the gastrointestinal system, liver or kidneys which may influence absorption, metabolism and excretion of the drugs. • - Diabetes mellitus. • - Any condition which might impair the ability of the physician to evaluate the progress of the patient.
Medication employed for the trial comprises: • A. (±)-COMPOUND (in the form of its bis-hydrogen maleate salt), in dry substance form. For administration the active ingre- ded is dissolved in pharmaceutical grade water, 30 - 60 mins. before ingestion: at a concentration of 1 g/100 ml, for administration at a dosage of 300 mg (30 ml), 200 mg (20 ml) or 100 mg (10 ml); at a concentration of 0.5 g/ 100 ml, for administration at a dosage of 50 mg (10 ml); or at a concentration of 0.25 g/100 ml for administration at a dosage of 25 mg (10 ml). • B. Theophylline solution at a dosage of 150 mg. • C. Placebo - aqueous solution only, no active ingredient. • D. Salbutamol, administered by inhalation in 3 puffs comprising 0.1 mg active ingredient/puff.
The trial is performed for each subject on 2, 3 or more separate days, each trial day being separated by a wash-out period of 3 to 7 days. […]

[2] = system: subjects exhibiting allergic, atopic bronchoconstrictor response; test: Clinical trial B: prophylactic efficacy compared with placebo (allergen challenge); settings: vs placebo
Description: Suitable individual dosages, e.g. for (i)-COMPOUND as the bis-hydrogen maleate, in such clinical trials comprise e.g. ca. 1 to 25 mg administered by inhalation (for single administration or administration 2 to 3 daily) or ca. 25 to 100 mg orally (for single administration or administration 2 to 3x daily) up to ca. 200 or 300 mg orally (for single administration).
Both acute (0 to 1 hour) and long-term (up to 12 hour) change in lung function is determined post-medication by measurement of parameters (FVC, FEV 1 etc...) as set forth for clinical trial A above.
In addition to monitoring of lung function, blood eosinophil levels are also monitored and the incidence of activated eosinophils and eosinophil secretory proteins is determined. In individual studies, subjects are also subjected to lung lavage and the presence of eosinophils and platelets and their respective secretory products determined before and after exposure to allergen.

Guinea pigs = test: Suppression of airways hyperreactivity, sensitised animals (immune complexes); settings: immune-complex treated animals, labelled platelets
From the text: Guinea pigs are anaesthetised and airways resistance and compliance recorded as described under example lb^l above. […] Platelets are isolated and labelled with ^lllindium prior to intravenous infusion. Platelet accumulation is monitored by external crystal detectors [c.f. Morley et al. […] Allergic reaction is initiated by i.v. injection of preformed immune complexes (bovine y-globulin/ anti-bovine y-globulin), using a dose that is scarcely sufficient to induce bronchospasm at the first injection. By repeating the dose at regular (10 min.) intervals, bronchospasm of progressively increasing amplitude is evidenced. This effect is paralleled by an incremental retention of platelets within the airway vasculature. Following the last dose of immune complexes, the dose-effect relationship to histamine is re-defined. In animals so treated, induction of airways hyperreactivity is consistently observed.

asthmatic subjects = test: Clinical trial C: prophylactic/bronchodilator efficacy in asthma; settings: additional bronchodilator dosaging on attack
Description: Initial dosaging is of the order of from 1 to 100 mg, e.g. from 5 to 50 mg per day, administered once or in divided dosages 2 or 3x daily, for administration by inhalation and of the order of from 25 to 300 mg per day administered once or in divided dosages 2 or 3x daily, for oral administration, with subsequent reduction in appropriate cases to a maintainance dosage of 1 to 50 mg, e.g. from 5 to 25 mg, per day for inhalation or from 25 to 100 or 200 mg per day orally. Administration is suitably effected in divided dosages 2 or 3x daily. During the course of the trial subjects are monitored continually and all relevant parameters recorded including lung function, alterations in the incidence of activated eosinophils or the release of eosinophil products into the blood or bronchial fluids and/or changes in the function of platelets ex vivo and, in particular,-frequency and severity of asthma exacerbation or attack. Additional bronchodilator dosaging may be provided on the occasion of any such attack.

| SMILES | tolerance (reported side-effects and side-reactions) ([1]; all instances) | results compared with therapy B (Theophylline 150 mg) or D (Salbutamol inhalation) ([1]; higher dosage rates, e.g. of 50 mg or 100 mg and more) | lung-function ([1]; oral 25 to 300 mg, compared with placebo) | bronchorestrictor response to allergen ([2]; ca. 1 to 25 mg by inhalation or ca. 25 to 300 mg orally prior to allergen challenge) | eosinophilic response ([2]; dosages as indicated prior to allergen challenge) | platelet accumulation (Guinea pigs) | results employing COMPOUND at exacerbation or attack (asthmatic subjects) |
| --- | --- | --- | --- | --- | --- | --- | --- |
| COc1cc2c(cc1OC)[C@@H]1CN(C)CC[C@@H]1N=C2c1ccc(NC(C)=O)cc1 (racemic) [cis-6-(4-acetanilido)-8,9-dimethoxy-2-methyl-1,2,3,4,4a,10b-hexahydrobenzo[c][1,6]naphthyridin] | well tolerated | approach or are at least comparable | marked improvement | advance protection | reduction | – | – |
| COc1cc2c(cc1OC)[C@@H]1CN(C)CC[C@@H]1N=C2c1ccc(NC(C)=O)cc1 [COMPOUND, cis-6-(4-acetanilido)-8,9-dimethoxy-2-methyl-1,2,3,4,4a,10b-hexahydrobenzo[c][1,6]naphthyridin] | – | – | – | – | – | No inhibition | symptomatic efficacy |
